Reference: US20080269213A1, “8-Hydroxyquinoline compounds and methods thereof” (Wyeth, priority 2006, published 2008)
“And” between values parts separate entries of the source, which are not always exact repeats. Equal entries are not always repeated. Where two headings read alike, the source gives them in different places. One block for each compound: values may come before it.

What was measured:
Agg-1 = target: T1, Agg-1 (Homo sapiens, UniProt O75173); assay: Agg-1 FRET assay; assay type: biochemical; conditions: for inhibition at 0.8 µM: @ 800 nM; for inhibition at 11 µM: @ 11000 nM; for inhibition at 67 µM: @ 67000 nM; for IC50: read-out: Agg1 IC50; for inhibition at 22.2 µM: @ 22200 nM; for inhibition at 7.4 µM: @ 7400 nM
T1 sequence (O75173 213-837): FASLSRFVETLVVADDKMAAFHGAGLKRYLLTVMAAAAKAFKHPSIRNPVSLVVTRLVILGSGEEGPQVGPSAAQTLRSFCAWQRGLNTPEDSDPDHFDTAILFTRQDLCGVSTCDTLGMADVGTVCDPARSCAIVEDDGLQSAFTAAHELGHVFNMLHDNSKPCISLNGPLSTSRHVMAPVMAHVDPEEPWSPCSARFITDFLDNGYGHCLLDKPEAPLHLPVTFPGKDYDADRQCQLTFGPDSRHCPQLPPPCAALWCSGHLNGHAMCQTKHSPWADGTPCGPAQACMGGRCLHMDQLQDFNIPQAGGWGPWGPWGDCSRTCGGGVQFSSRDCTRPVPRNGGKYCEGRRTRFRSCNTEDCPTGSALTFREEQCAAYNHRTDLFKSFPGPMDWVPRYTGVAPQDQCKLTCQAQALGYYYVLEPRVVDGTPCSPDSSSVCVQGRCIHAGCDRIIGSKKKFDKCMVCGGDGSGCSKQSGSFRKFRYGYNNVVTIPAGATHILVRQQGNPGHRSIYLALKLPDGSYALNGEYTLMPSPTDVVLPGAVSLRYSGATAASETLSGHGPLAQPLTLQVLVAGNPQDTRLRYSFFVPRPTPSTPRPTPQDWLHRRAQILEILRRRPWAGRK
Text: The Agg-1/Agg-2 FRET data for N-[(8-hydroxyquinolin-2-yl)(phenyl)methyl]-2-phenoxyacetamide and 2-{[(phenoxyacetyl)amino](phenyl)methyl}quinolin-8-yl phenoxyacetate is presented in Table 1.

[1] = target: T2, recombinant human Aggrecanase-2 Agg2-Phe628 (Homo sapiens, UniProt Q9UNA0); assay: Aggrecanase 2 in vitro enzyme assay (Agg-2 FRET, quenched fluorescent peptide substrate); assay type: biochemical; design: purified recombinant human Aggrecanase-2 Agg2-Phe628 (MW=41,737); This is a truncated form of full-length human aggrecanase-2; made in house; host or cells: CHO cells
T2 sequence (Q9UNA0 262-628 limits assumed): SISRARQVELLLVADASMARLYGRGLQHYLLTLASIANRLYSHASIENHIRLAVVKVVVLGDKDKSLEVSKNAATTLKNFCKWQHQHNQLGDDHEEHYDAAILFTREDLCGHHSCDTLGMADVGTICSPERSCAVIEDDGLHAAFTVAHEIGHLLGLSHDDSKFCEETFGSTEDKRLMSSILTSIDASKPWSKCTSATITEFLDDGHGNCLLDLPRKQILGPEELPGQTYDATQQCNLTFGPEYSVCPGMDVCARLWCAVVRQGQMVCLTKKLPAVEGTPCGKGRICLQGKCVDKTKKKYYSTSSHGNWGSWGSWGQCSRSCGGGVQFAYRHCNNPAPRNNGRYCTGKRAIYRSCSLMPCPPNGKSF
Method in brief: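 Continuous FRET assay with purified truncated human Aggrecanase-2 Agg2-Phe628 (CHO-expressed, 0.5 μg/ml final) and brevican-derived Abz/Dnp peptide (25 μM final) in 50 mM HEPES pH 7.5, 100 mM NaCl, 5 mM CaCl2, 0.1% CHAPS, 5% glycerol. Enzyme preincubated with compound before substrate; fluorescence (ex 340/em 420 nm) followed kinetically 40 min at 30 °C.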

[2] = read-out: Agg-2 FRET Median IC50

IC50 (Agg-1): ~22 µM
IC50 ([1]; read-out: Agg2 IC50): 1000 nM
Compound: COc1cc(OC)cc(OCC(=O)NC(c2ccccc2Cl)c2cc(Cl)c3cccnc3c2O)c1 (centres unmarked) [N-[(5-chloro-8-hydroxyquinolin-7-yl)(2-chlorophenyl)methyl]-2-(3,5-dimethoxyphenoxy)acetamide]

inhibition at 10 µM (Agg-1; @ 10000 nM, read-out: Agg1 %): 48%
IC50 ([1]; read-out: Agg2 IC50): 1280 nM
Compound: CCc1cccc(OCC(=O)NC(c2ccccc2Cl)c2cc(Cl)c3cccnc3c2O)c1 (centres unmarked) [N-[(5-chloro-8-hydroxyquinolin-7-yl)(2-chlorophenyl)methyl]-2-(3-ethylphenoxy)acetamide]

IC50 (Agg-1): > 20 µM
IC50 ([1]; read-out: Agg2 IC50): 2400 nM
Compound: O=C(COc1ccc(C2CCCC2)cc1)NC(c1ccccc1Cl)c1cc(Cl)c2cccnc2c1O (centres unmarked) [N-[(5-chloro-8-hydroxyquinolin-7-yl)(2-chlorophenyl)methyl]-2-(4-cyclopentylphenoxy)acetamide]

inhibition at 50 µM (Agg-1; @ 50000 nM, read-out: Agg1 %): 56%
IC50 ([1]; read-out: Agg2 IC50): 1400 nM
Compound: CC(C)c1ccc(OCC(=O)NC(c2ccccc2Cl)c2cc(Cl)c3cccnc3c2O)cc1 (centres unmarked) [N-[(5-chloro-8-hydroxyquinolin-7-yl)(2-chlorophenyl)methyl]-2-(4-isopropylphenoxy)acetamide]

inhibition at 33 µM (Agg-1; @ 33000 nM, read-out: Agg1 %): 44%
inhibition at 22 µM ([1]; @ 22000 nM, read-out: Agg2 %): 50%
Compound: CCCCCc1ccc(OCC(=O)NC(c2ccccc2Cl)c2cc(Cl)c3cccnc3c2O)cc1 (centres unmarked) [N-[(5-chloro-8-hydroxyquinolin-7-yl)(2-chlorophenyl)methyl]-2-(4-pentylphenoxy)acetamide]

inhibition at […] (Agg-1; @ 1100 nM, read-out: Agg1 %): 44%
inhibition at […] ([1]; @ 2500 nM): 47%
Compound: CCCc1ccc(OCC(=O)NC(c2ccccc2Cl)c2cc(Cl)c3cccnc3c2O)cc1 (centres unmarked) [N-[(5-chloro-8-hydroxyquinolin-7-yl)(2-chlorophenyl)methyl]-2-(4-propylphenoxy)acetamide]

IC50 (Agg-1): > 22 µM
IC50 ([1]; read-out: Agg2 IC50): 1550 nM
IC50 [1, 2]: 1550 nM and 350 nM
Compound: O=C(COc1ccccc1)NC(c1ccccc1Cl)c1cc(Cl)c2cccnc2c1O (centres unmarked) [N-[(5-chloro-8-hydroxyquinolin-7-yl)(2-chlorophenyl)methyl]-2-phenoxyacetamide]

inhibition at […] (Agg-1; @ 1200 nM, read-out: Agg1 %): 29%
IC50 ([1]; read-out: Agg2 IC50): 1540 nM
IC50 [1, 2]: 1540 nM
Compound: O=C(Cc1ccccc1)NC(c1ccccc1Cl)c1cc(Cl)c2cccnc2c1O (centres unmarked) [N-[(5-chloro-8-hydroxyquinolin-7-yl)(2-chlorophenyl)methyl]-2-phenylacetamide]

inhibition at 67 µM (Agg-1; read-out: Agg1 %): 51%
IC50 ([1]; read-out: Agg2 IC50): 2430 nM
IC50 [1, 2]: 3900 nM and 2430 nM
Compound: O=C(COc1ccccc1)NC(c1ccco1)c1cc(Cl)c2cccnc2c1O (centres unmarked) [N-[(5-chloro-8-hydroxyquinolin-7-yl)(2-furyl)methyl]-2-phenoxyacetamide]

inhibition at 22 µM (Agg-1; @ 22000 nM, read-out: Agg1 %): 59%
inhibition at […] ([1]; @ 1200 nM): 43%
Compound: O=C(COc1ccccc1)NC(c1ccccc1N1CCOCC1)c1cc(Cl)c2cccnc2c1O (centres unmarked) [N-[(5-chloro-8-hydroxyquinolin-7-yl)(2-morpholin-4-ylphenyl)methyl]-2-phenoxyacetamide]

inhibition at 7.4 µM (Agg-1; read-out: Agg1 %): 48%
inhibition at […] ([1]; @ 1200 nM): 58%
IC50 [1, 2]: 1210 nM
Compound: O=C(COc1ccccc1)NC(c1ccccc1[N+](=O)[O-])c1cc(Cl)c2cccnc2c1O (centres unmarked) [N-[(5-chloro-8-hydroxyquinolin-7-yl)(2-nitrophenyl)methyl]-2-phenoxyacetamide]

IC50 (Agg-1): > 1.5 µM
IC50 [1, 2]: 1060 nM and 5190 nM
Compound: COc1ccc(C(NC(=O)COc2ccccc2)c2cc(Cl)c3cccnc3c2O)cc1OC (centres unmarked) [N-[(5-chloro-8-hydroxyquinolin-7-yl)(3,4-dimethoxyphenyl)methyl]-2-phenoxyacetamide]

IC50 (Agg-1): 66 to 200 µM
IC50 ([1]; read-out: Agg2 IC50): 1500 nM
Compound: Cc1ccc(C(NC(=O)COc2ccccc2)c2cc(Cl)c3cccnc3c2O)cc1C (centres unmarked) [N-[(5-chloro-8-hydroxyquinolin-7-yl)(3,4-dimethylphenyl)methyl]-2-phenoxyacetamide]

Further lines, the compound ahead of its results:

Compound: O=C(COc1ccccc1)NC(/C=C/c1ccccc1)c1cc(Cl)c2cccnc2c1O (centres unmarked) [N-[(2E)-1-(5-chloro-8-hydroxyquinolin-7-yl)-3-phenylprop-2-en-1-yl]-2-phenoxyacetamide]
inhibition at 7.5 µM (Agg-1; @ 7500 nM, read-out: Agg1 %): 50%
IC50 ([1]; read-out: Agg2 IC50): 1600 nM

Compound: O=C(Cc1ccccc1)NC(/C=C/c1ccccc1)c1cc(Cl)c2cccnc2c1O (centres unmarked) [N-[(2E)-1-(5-chloro-8-hydroxyquinolin-7-yl)-3-phenylprop-2-en-1-yl]-2-phenylacetamide]
inhibition at 20 µM (Agg-1; @ 20000 nM, read-out: Agg1 %): 45%
IC50 ([1]; read-out: Agg2 IC50): 50000 nM
IC50 [1, 2]: 50000 nM

Compound: CCC/C=C/C(NC(=O)COc1ccccc1)c1cc(Cl)c2cccnc2c1O (centres unmarked) [N-[(2E)-1-(5-chloro-8-hydroxyquinolin-7-yl)hex-2-en-1-yl]-2-phenoxyacetamide]
inhibition at 0.8 µM (Agg-1; read-out: Agg1 %): 30%
inhibition at […] ([1]; @ 2500 nM): 47%

Compound: CO/C(=C\c1ccccc1)C(NC(=O)COc1ccccc1)c1cc(Cl)c2cccnc2c1O (centres unmarked) [N-[(2Z)-1-(5-chloro-8-hydroxyquinolin-7-yl)-2-methoxy-3-phenylprop-2-en-1-yl]-2-phenoxyacetamide]
inhibition at 11 µM (Agg-1; read-out: Agg1 %): 47%
inhibition at […] ([1]; @ 2500 nM): 50%

Compound: CCCCOc1ccc(C(NC(=O)COc2ccccc2)c2cc(Cl)c3cccnc3c2O)cc1 (centres unmarked) [N-[(4-butoxyphenyl)(5-chloro-8-hydroxyquinolin-7-yl)methyl]-2-phenoxyacetamide]
inhibition at 67 µM (Agg-1; read-out: Agg1 %): 50%
inhibition at […] ([1]; @ 2500 nM): 55%

Compound: O=C(COc1ccccc1)NC(c1ccccc1)c1cc(Cl)c2ccccc2c1O (centres unmarked) [N-[(4-chloro-1-hydroxy-2-naphthyl)(phenyl)methyl]-2-phenoxyacetamide]
IC50 (Agg-1): > 22 µM
Agg-2 FRET Median PCT INHIB ([1]; concentration not given): 31%
IC50 ([1]; read-out: Agg2 IC50): > 67000 nM

Compound: Nc1cc(C(NC(=O)COc2ccccc2)c2ccccc2)c(O)c2ncccc12 (centres unmarked) [N-[(5-amino-8-hydroxyquinolin-7-yl)(phenyl)methyl]-2-phenoxyacetamide]
inhibition at 22.2 µM (Agg-1; read-out: Agg1 %): 57%
inhibition at 22.2 µM ([1]; @ 22200 nM): 50%

Compound: O=C(CCl)NC(c1ccccc1)c1cc(Br)c2cccnc2c1O (centres unmarked) [N-[(5-bromo-8-hydroxyquinolin-7-yl)(phenyl)methyl]-2-chloroacetamide]
IC50 (Agg-1): 22 to 67 µM
IC50 ([1]; read-out: Agg2 IC50): 5400 nM

Compound: O=C(COc1ccccc1)NC(c1ccccc1)c1cc(Br)c2cccnc2c1O (centres unmarked) [N-[(5-bromo-8-hydroxyquinolin-7-yl)(phenyl)methyl]-2-phenoxyacetamide]
inhibition at 22.2 µM (Agg-1; read-out: Agg1 %): 64%
IC50 ([1]; read-out: Agg2 IC50): 2480 nM
IC50 [1, 2]: 2480 nM

Compound: Cn1c(C(NC(=O)COc2ccccc2)c2cc(Cl)c3cccnc3c2O)cc2ccccc21 (centres unmarked) [N-[(5-chloro-8-hydroxyquinolin-7-yl)(1-methyl-1H-indol-2-yl)methyl]-2-phenoxyacetamide]
inhibition at 11 µM (Agg-1; read-out: Agg1 %): 48%
inhibition at […] ([1]; @ 2500 nM): 57%

Compound: Cn1cc(C(NC(=O)COc2ccccc2)c2cc(Cl)c3cccnc3c2O)c2ccccc21 (centres unmarked) [N-[(5-chloro-8-hydroxyquinolin-7-yl)(1-methyl-1H-indol-3-yl)methyl]-2-phenoxyacetamide]
inhibition at 11 µM (Agg-1; read-out: Agg1 %): 46%
inhibition at […] ([1]; @ 2500 nM): 53%

Compound: O=C(COc1ccccc1)NC(c1cc(Cl)c2cccnc2c1O)c1cccc2[nH]ccc12 (centres unmarked) [N-[(5-chloro-8-hydroxyquinolin-7-yl)(1H-indol-4-yl)methyl]-2-phenoxyacetamide]
inhibition at 0.8 µM (Agg-1; read-out: Agg1 %): 41%
IC50 ([1]; read-out: Agg2 IC50): 2100 nM
IC50 [1, 2]: 2080 nM

Compound: O=C(COc1ccccc1)NC(c1cc(Cl)c2cccnc2c1O)c1cccc2cc[nH]c12 (centres unmarked) [N-[(5-chloro-8-hydroxyquinolin-7-yl)(1H-indol-7-yl)methyl]-2-phenoxyacetamide]
inhibition at 7.4 µM (Agg-1; read-out: Agg1 %): 48%
inhibition at […] ([1]; @ 1900 nM): 69%

Compound: O=C(COc1ccccc1)NC(c1ccc2c(c1)OCCO2)c1cc(Cl)c2cccnc2c1O (centres unmarked) [N-[(5-chloro-8-hydroxyquinolin-7-yl)(2,3-dihydro-1,4-benzodioxin-6-yl)methyl]-2-phenoxyacetamide]
inhibition at 7.4 µM (Agg-1; read-out: Agg1 %): 51%
IC50 ([1]; read-out: Agg2 IC50): 850 nM
